Here are results for 8 compounds from patent publication US9096580B2 (priority 2012, dated 2015).

Data set [1] deals with HCV. The following applies: combination therapy; cited from earlier work.
The subject of data set [2] is HCV. As to conditions: cited from earlier work.
Data set [3] deals with genotype 1b HCV replicon in Huh-7 cells. Put plainly: HCV replicon luciferase assay. It is filed as cell-based, HCV genotype 1b. As to conditions: Hepatitis C virus, 72 h; Huh-7 genotype 1b replicon, Renilla luciferase, 3 days incubation. On the procedure:
The cell lines used to evaluate compounds consist of a human hepatocyte derived cell line (Huh-7) that constitutively expresses a genotype 1b HCV replicon containing a Renilla luciferase reporter gene. These cells were maintained in Dulbecco's modified Eagle medium (DMEM) containing 10% FBS, 100 U/mL penicillin/streptomycin and 1.0 mg/mL G418.
HCV Replicon Luciferase Assay.
To evaluate compound efficacy, titrated compounds were transferred to sterile 384-well tissue culture treated plates, and the plates were seeded with HCV replicon cells (50 μL at a density of 2.4×10^3 cells/well) in DMEM containing 4% FBS (final DMSO concentration at 0.5%). After 3 days incubation at 37° C., cells were analyzed for Renilla Luciferase activity using the EnduRen substrate (Promega cat #E6485) according to the manufacturer's directions. Briefly, the EnduRen substrate was diluted in DMEM and then added to the plates to a final concentration of 7.5 μM. The plates were incubated for at least 1 h at 37° C. then read on a Viewlux Imager (PerkinElmer) using a luminescence program. The 50% effective concentration (EC50) was calculated using the four-parameter logistic formula noted above.

Data set [4] addresses HCV NS5B RdRp, genotype 1b (Hepatitis C virus genotype 1b (isolate Con1) (HCV), UniProt Q9WMX2). In words: HCV NS5B RdRp enzyme assay. The format is biochemical, HCV genotype 1b. How it is done:
HCV NS5B RdRp Cloning, Expression, and Purification.
The cDNA encoding the NS5B protein of HCV, genotype 1b, was cloned into the pET21a expression vector. The protein was expressed with an 18 amino acid C-terminal truncation to enhance the solubility. The E. coli competent cell line BL21(DE3) was used for expression of the protein. Cultures were grown at 37° C. for ˜4 hours until the cultures reached an optical density of 2.0 at 600 nm. The cultures were cooled to 20° C. and induced with 1 mM IPTG. Fresh ampicillin was added to a final concentration of 50 μg/mL and the cells were grown overnight at 20° C.
The lysis buffer consisted of 20 mM Tris-HCl, pH 7.4, 500 mM NaCl, 0.5% triton X-100, 1 mM DTT, 1 mM EDTA, 20% glycerol, 0.5 mg/mL lysozyme, 10 mM MgCl2, 15 ug/mL deoxyribonuclease I, and Complete TM protease inhibitor tablets (Roche). After addition of the lysis buffer, frozen cell pellets were resuspended using a tissue homogenizer. […]
After incubating for at least 15 minutes, plates were read on an Amersham LEADseeker multimodality imaging system.
IC50 values for compounds were determined using ten different [I]. IC50 values were calculated from the inhibition using the four-parameter logistic formula y=A+((B−A)/(1+((C/x)^D))), where A and B denote minimal and maximal % inhibition, respectively, C is the IC50, D is hill slope and x represents compound concentration.

HCV NS5B RdRp, genotype 1b, sequence (Q9WMX2 2420-2992): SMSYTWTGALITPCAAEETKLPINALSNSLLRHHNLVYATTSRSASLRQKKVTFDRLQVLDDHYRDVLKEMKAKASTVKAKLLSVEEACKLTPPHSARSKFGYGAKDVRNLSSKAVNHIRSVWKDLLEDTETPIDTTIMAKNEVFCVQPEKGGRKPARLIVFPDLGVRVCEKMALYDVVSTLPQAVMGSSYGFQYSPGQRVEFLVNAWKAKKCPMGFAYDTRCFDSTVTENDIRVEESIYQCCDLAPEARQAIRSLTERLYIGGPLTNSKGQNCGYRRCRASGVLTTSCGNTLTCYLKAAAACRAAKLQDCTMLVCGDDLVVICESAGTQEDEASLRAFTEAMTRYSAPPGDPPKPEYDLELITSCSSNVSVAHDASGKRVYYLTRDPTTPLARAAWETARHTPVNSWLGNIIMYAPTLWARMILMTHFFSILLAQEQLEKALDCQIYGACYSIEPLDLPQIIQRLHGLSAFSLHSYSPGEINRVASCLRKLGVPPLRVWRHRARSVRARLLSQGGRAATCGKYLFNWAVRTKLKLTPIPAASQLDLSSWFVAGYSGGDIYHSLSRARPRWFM

As to alpha-interferon and ribavirin, the “sustained efficacy, share of patients” value in data set [1] is 40%.

Regarding `CNC(=O)c1c(-c2ccc(F)cc2)oc2cc(N(CCO)S(C)(=O)=O)c(C3CC3)cc12` [HCV-796], the “toxicity during extended dosing” value in data set [2] (extended dosing of the combination regimens with interferon and ribavirin) is listed as “hepatic toxicity”. For the same compound, the “HCV RNA levels in patients” value in data set [2] (patients, single agent: transient decrease then rebound) is “reduce HCV RNA levels”.

For `CNC(=O)c1c(-c2ccc(F)cc2)oc2ccc(-c3cc(C(=O)NC4(c5ncccn5)CNC4)ccc3C)c(F)c12` [4-fluoro-2-(4-fluorophenyl)-N-methyl-5-(2-methyl-5-(3-(pyrimidin-2-yl)azetidin-3-ylcarbamoyl)phenyl)benzofuran-3-carboxamide], the half-maximal effective concentration (EC50) in data set [3] turned out to be 4330 nM. This lies in the single-digit micromolar range.

As for `CNC(=O)c1c(-c2ccc(F)cc2)oc2ccc(-c3cc(C(=O)NC4(c5ncccn5)CN(C)C4)ccc3C)c(F)c12`, 780 nM corresponded to half-maximal inhibition in data set [4] (IC50). In data set [3], this compound returned an EC50 of 2460 nM.

For the compound `CNC(=O)c1c(-c2ccc(F)cc2)oc2ccc(-c3cc(C(=O)NC4(c5ncccn5)CN(C)C4)c(OC)cc3C)c(F)c12`, the concentration for a half-maximal effect (EC50) in data set [3] was 1190 nM.

Consider `CNC(=O)c1c(-c2ccc(F)cc2)oc2ccc(-c3cc(C(=O)NC4(c5ncccn5)CNC4)cc(F)c3C)c(F)c12`, for which, in data set [4], the 50% inhibitory concentration (IC50) stood at 330 nM. Further, in data set [3], the response was half-maximal at 390 nM (EC50).

Consider `CNC(=O)c1c(-c2ccc(F)cc2)oc2ccc(-c3cc(C(=O)NC4(c5ncccn5)CNC4)c(OC)cc3C)c(F)c12`, for which the half-maximal effective concentration (EC50) in data set [3] worked out at 900 nM.

With `CNC(=O)c1c(-c2ccc(F)cc2)oc2ccc(-c3cc(C(=O)NC4(c5ncccn5)CN(C)C4)cc(F)c3C)c(F)c12` [4-fluoro-5-(3-fluoro-2-methyl-5-(1-methyl-3-(pyrimidin-2-yl)azetidin-3-ylcarbamoyl)phenyl)-2-(4-fluorophenyl)-N-methylbenzofuran-3-carboxamide], the half-maximal effective concentration (EC50) in data set [3] came to 820 nM.
